According to patent publication US9163256B2, “Mutant receptors and their use in a nuclear receptor-based inducible gene expression system” (priority 2004, dated 2015):
Like-named read-outs stand apart in the source and are kept apart here.

Assays:
Experiment in all cases: cell-based
[1] = target: CfEcR-DEF mutant F109N (Choristoneura fumiferana, UniProt O77255, F392N)
Protocol: (§1) This construct was prepared in the same way as in switch 1.1 above except wild-type CfEcR-DEF was replaced with mutant CfEcR-DEF comprising a ligand binding domain comprising a substitution mutation selected from Table 1 below.
(§2) DNAs were transfected into mouse NIH3T3 cells (ATCC) as follows. Standard methods for culture and maintenance of the cells were followed. Cells were harvested and plated 96-well plates at 2,500 cells per well, in 50 μL of growth medium containing 10% fetal bovine serum (FBS). Twenty-four hours later, the cells were treated with 35 μL of serum-free growth medium containing either dimethylsulfoxide (DMSO; control) or a DMSO solution of ligand. The cells were then transfected using Superfect (Qiagen Inc.) transfection reagent. For each well, 0.625 μL of Superfect was mixed with 14.2 μL of serum-free growth medium. 0.16 μg of reporter construct and 0.04 μg of each receptor construct were added to the transfection reagent mix. The contents of the transfection mix were mixed in a vortex mixer and let stand at room temperature for 30 minutes. At the end of incubation, 15 μL of transfection mix was added to the cells. The cells were maintained at 37° C. and 5% CO2 for 48 hours in 5% FBS.
(§3) Reporter Assays: Cells were harvested 40 hours after adding ligands. 125 μL of passive lysis buffer (part of Dual-Luciferase reporter assay system from Promega Corporation) were added to each well of the […] plate. The plates were placed on a rotary shaker for 15 minutes. Twenty μL of lysate were assayed. Luciferase activity was measured using Dual-Luciferase reporter assay system from Promega Corporation following the manufacturer's instructions. Fold induction (FI) activities were calculated by dividing relative light units (“RLU”) in ligand treated cells with RLU in DMSO treated cells (untreated control).

[2] = target: CfEcR-DEF mutant L234M (Choristoneura fumiferana, UniProt O77255, L517M)
Chain of CfEcR-DEF mutant L234M (P28702 299-449): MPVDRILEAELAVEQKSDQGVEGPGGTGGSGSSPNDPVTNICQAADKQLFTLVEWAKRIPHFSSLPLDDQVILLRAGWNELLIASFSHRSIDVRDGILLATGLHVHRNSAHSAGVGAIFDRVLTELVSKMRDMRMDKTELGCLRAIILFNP
Chain of CfEcR-DEF mutant L234M (O77255 entry or part of it L517M): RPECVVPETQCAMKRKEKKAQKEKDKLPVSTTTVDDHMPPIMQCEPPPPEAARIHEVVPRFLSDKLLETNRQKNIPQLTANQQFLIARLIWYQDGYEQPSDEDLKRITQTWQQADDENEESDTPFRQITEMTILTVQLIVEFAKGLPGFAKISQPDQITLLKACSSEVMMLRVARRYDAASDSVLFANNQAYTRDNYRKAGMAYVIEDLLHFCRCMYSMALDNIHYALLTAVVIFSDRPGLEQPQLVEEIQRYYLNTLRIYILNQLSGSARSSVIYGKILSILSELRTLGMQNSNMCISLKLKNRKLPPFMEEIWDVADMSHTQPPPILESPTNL
Protocol: as §1, §2, §3

[3] = target: CfEcR-DEF mutant L132V (Choristoneura fumiferana, UniProt O77255, L415V)
Protocol: as §1, §2, §3

[4] = target: CfEcR-DEF mutant M125R (Choristoneura fumiferana, UniProt O77255, M408R)
Protocol: as §1, §2, §3

[5] = target: CfEcR-DEF mutant M92L (Choristoneura fumiferana, UniProt O77255, M375L)
Protocol: as §1, §2, §3

[6] = target: CfEcR-DEF mutant A110W (Choristoneura fumiferana, UniProt O77255, A393W)
Protocol: as §1, §2, §3

[7] = target: CfEcR-DEF mutant V96L (Choristoneura fumiferana, UniProt O77255, V379L)
Protocol: as §1, §2, §3

[8] = target: CfEcR-DEF mutant M92E (Choristoneura fumiferana, UniProt O77255, M375E)
Chain of CfEcR-DEF mutant M92E (P28702 299-449): as the sequence (P28702 299-449) above
Chain of CfEcR-DEF mutant M92E (O77255 entry or part of it M375E): as the sequence (O77255 entry or part of it L517M) above, with M169E, M311L counted along it
Protocol: as §1, §2, §3

[9] = target: CfEcR-DEF mutant M54T (Choristoneura fumiferana, UniProt O77255, M337T)
Protocol: as §1, §2, §3

[10] = target: CfEcR-DEF mutant R95W (Choristoneura fumiferana, UniProt O77255, R378W)
Protocol: as §1, §2, §3

[11] = target: CfEcR-DEF mutant M54W (Choristoneura fumiferana, UniProt O77255, M337W)
Chain of CfEcR-DEF mutant M54W (O77255 entry or part of it M337W): as the sequence (O77255 entry or part of it L517M) above, with M131W, M311L counted along it
Chain of CfEcR-DEF mutant M54W (P28702 299-449, further chain): as the sequence (P28702 299-449) above
Protocol: as §1, §2, §3

[12] = target: CfEcR-DEF mutant F109W (Choristoneura fumiferana, UniProt O77255, F392W)
Protocol: as §1, §2, §3

[13] = target: CfEcR-DEF mutant I51L (Choristoneura fumiferana, UniProt O77255, I334L)
Protocol: as §1, §2, §3

[14] = target: CfEcR-DEF mutant M125P (Choristoneura fumiferana, UniProt O77255, M408P)
Chain of CfEcR-DEF mutant M125P (P28702 299-449): as above
Chain of CfEcR-DEF mutant M125P (O77255 entry or part of it M408P): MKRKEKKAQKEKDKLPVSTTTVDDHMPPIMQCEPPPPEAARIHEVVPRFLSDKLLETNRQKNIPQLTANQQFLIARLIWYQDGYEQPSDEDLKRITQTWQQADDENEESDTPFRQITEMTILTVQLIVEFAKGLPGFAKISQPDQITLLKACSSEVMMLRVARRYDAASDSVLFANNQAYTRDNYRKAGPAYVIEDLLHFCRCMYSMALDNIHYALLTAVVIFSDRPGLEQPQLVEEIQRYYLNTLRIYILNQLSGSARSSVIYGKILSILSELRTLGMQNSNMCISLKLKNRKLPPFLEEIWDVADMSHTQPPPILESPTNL
Protocol: as §1, §2, §3

[15] = target: CfEcR-DEF mutant V96W (Choristoneura fumiferana, UniProt O77255, V379W)
Protocol: as §1, §2, §3

[16] = target: CfEcR-DEF mutant T52L (Choristoneura fumiferana, UniProt O77255, T335L)
Protocol: as §1, §2, §3

[17] = target: CfEcR-DEF mutant R95M (Choristoneura fumiferana, UniProt O77255, R378M)
Chain of CfEcR-DEF mutant R95M (P28702 299-449): as the sequence (P28702 299-449) above
Chain of CfEcR-DEF mutant R95M (O77255 entry or part of it R378M): as the sequence (O77255 entry or part of it M408P) above, with R160M, P190M counted along it
Protocol: as §1, §2, §3

[18] = target: CfEcR-DEF mutant W238P (Choristoneura fumiferana, UniProt O77255, W521P)
Chain of CfEcR-DEF mutant W238P (P28702 299-449): as the sequence (P28702 299-449) above
Chain of CfEcR-DEF mutant W238P (O77255 entry or part of it W521P): as the sequence (O77255 entry or part of it M408P) above, with P190M, W303P counted along it
Protocol: as §1, §2, §3

[19] = target: CfEcR-DEF mutant M125C (Choristoneura fumiferana, UniProt O77255, M408C)
Protocol: as §1, §2, §3

[20] = target: CfEcR-DEF mutant M125L (Choristoneura fumiferana, UniProt O77255, M408L)
Chain of CfEcR-DEF mutant M125L (P28702 299-449): as the sequence (P28702 299-449) above
Chain of CfEcR-DEF mutant M125L (O77255 entry or part of it M408L): as the sequence (O77255 entry or part of it M408P) above, with P190L counted along it
Protocol: as §1, §2, §3

[21] = target: CfEcR-DEF mutant Y120W (Choristoneura fumiferana, UniProt O77255, Y403W)
Protocol: as §1, §2, §3

[22] = target: CfEcR-DEF mutant A110E (Choristoneura fumiferana, UniProt O77255, A393E)
Chain of CfEcR-DEF mutant A110E (P28702 299-449, stated change not applied): as the sequence (P28702 299-449) above
Chain of CfEcR-DEF mutant A110E (O77255 entry or part of it A393E): as the sequence (O77255 entry or part of it L517M) above, with A187E, M311L counted along it
Protocol: as §1, §2, §3

[23] = NIH3T3, 40 h, read-out: Rel Max FI

Chain of CfEcR-DEF mutant F109N (P28702 299-449): as the sequence (P28702 299-449) above
Chain of CfEcR-DEF mutant F109N (O77255 entry or part of it F392N): as the sequence (O77255 entry or part of it L517M) above, with F186N, M311L counted along it

CC(C)CC[C@@H](O)[C@](C)(O)[C@H]1CC[C@@]2(O)C3=CC(=O)[C@@H]4C[C@@H](O)[C@@H](O)C[C@]4(C)[C@H]3CC[C@]12C [PonA, ponasterone A]
Rel Max FI ([1]; mutant F109N): 0
EC50 ([1]; mutant F109N, read-out: EC50): > 33 µM
Rel Max FI ([2]; mutant L234M): 0.02
EC50 ([2]; mutant L234M, read-out: EC50): > 33 µM
EC50 ([3]; mutant L132V, read-out: EC50): 6.56 µM
Rel Max FI ([3]; mutant L132V, relative to max fold induction of GS-E ligand): 0.57
Rel Max FI ([4]; mutant M125R): 0
EC50 ([4]; mutant M125R, read-out: EC50): ~8 µM
Rel Max FI ([5]; mutant M92L): 0
EC50 ([5]; mutant M92L, read-out: EC50): > 33 µM
Rel Max FI ([6]; mutant A110W): 0.01
EC50 ([6]; mutant A110W, read-out: EC50): > 33 µM
Rel Max FI ([7]; mutant V96L): 0.49
EC50 ([7]; mutant V96L, read-out: EC50): 7.49 µM
Rel Max FI ([8]; mutant M92E): 0.01
EC50 ([8]; mutant M92E, read-out: EC50): > 33 µM
EC50 ([9]; mutant M54T, read-out: EC50): 9.46 µM
Rel Max FI ([9]; mutant M54T, relative to max fold induction of GS-E ligand): 0.5
Rel Max FI ([10]; mutant R95W): 0
EC50 ([10]; mutant R95W, read-out: EC50): > 33 µM
Rel Max FI ([11]; mutant M54W): 0.46
EC50 ([11]; mutant M54W, read-out: EC50): ~10 µM
EC50 ([12]; mutant F109W, read-out: EC50): 4.06 µM
Rel Max FI ([12]; mutant F109W, relative to max fold induction of GS-E ligand): 0.08
Rel Max FI ([13]; mutant I51L): 0.66
EC50 ([13]; mutant I51L, read-out: EC50): ~8 µM
Rel Max FI ([14]; mutant M125P): 0.7
EC50 ([14]; mutant M125P, read-out: EC50): > 33 µM
Rel Max FI ([15]; mutant V96W): 0.83
EC50 ([15]; mutant V96W, read-out: EC50): ~3.3 µM
EC50 ([16]; mutant T52L, read-out: EC50): 5.03 µM
Rel Max FI ([16]; mutant T52L, relative to max fold induction of GS-E ligand): 0.54
Rel Max FI ([17]; mutant R95M): 0
EC50 ([17]; mutant R95M, read-out: EC50): > 33 µM
EC50 ([18]; mutant W238P, read-out: EC50): ~3.3 µM
Rel Max FI ([18]; mutant W238P, relative to max fold induction of GS-E ligand): 0.73
Rel Max FI ([19]; mutant M125C): 0.28
Rel Max FI ([20]; mutant M125L): 0
EC50 ([20]; mutant M125L, read-out: EC50): > 33 µM
Rel Max FI ([21]; mutant Y120W): 0.69
EC50 ([21]; mutant Y120W, read-out: EC50): ~10 µM
EC50 ([22]; mutant A110E, read-out: EC50): ~10 µM
Rel Max FI ([22]; mutant A110E, relative to max fold induction of GS-E ligand): 1.09

Cc1cc(C)cc(C(=O)N(NC(=O)c2cccc(C(C)C)c2C)C(C)(C)C)c1 [RG-102362, 3,5-Dimethyl-benzoic acid N-tert-butyl-N′-(3-isopropyl-2-methyl-benzoyl)-hydrazide]
EC50 [1]: 1.85 µM
Emax [1, 23]: 40%
EC50 [2]: 2.04 µM
Emax [2, 23]: 43%
EC50 [3]: 0.29 µM
Emax [3, 23]: 74%
EC50 [4]: 10.4 µM
Emax [4, 23]: 0%
EC50 [5]: ~20 µM
Emax [5, 23]: 5%
EC50 [6]: 2.99 µM
Emax [6, 23]: 55%
EC50 [7]: 2.67 µM
Emax [7, 23]: 58%
EC50 [8]: > 33 µM
Emax [8, 23]: 4%
EC50 [9]: 0.05 µM
Emax [9, 23]: 66%
EC50 [10]: ~8 µM
Emax [10, 23]: 25%
EC50 [11]: 1.24 µM
Emax [11, 23]: 44%
EC50 [12]: 1.41 µM
Emax [12, 23]: 70%
EC50 [13]: 3.35 µM
Emax [13, 23]: 53%
EC50 [14]: > 33 µM
Emax [14, 23]: 78%
EC50 [15]: 3.26 µM
Emax [15, 23]: 38%
EC50 [16]: 0.33 µM
Emax [16, 23]: 61%
EC50 [17]: 4.28 µM
Emax [17, 23]: 27%
EC50 [18]: 0.29 µM
Emax [18, 23]: 40%
EC50 ([19]; EC50, mutant M125C): ≥ 33 µM
Emax [19, 23]: 15%
EC50 [20]: > 33 µM
Emax [20, 23]: 1%
EC50 [21]: 4.96 µM
Emax [21, 23]: 67%
EC50 [22]: 1.02 µM
Emax [22, 23]: 78%
